Laboratory results taken from publication PMC6222820, “Synthesis of New Triarylpyrazole Derivatives Possessing Terminal Sulfonamide Moiety and Their Inhibitory Effects on PGE2 and Nitric Oxide Productions in Lipopolysaccharide-Induced RAW 264.7 Macrophages” (Molecules : A Journal of Synthetic Chemistry and Natural …, 2018).
“Also recorded” adds a separate entry of the source.

Key:
[1] = system: LPS-induced RAW 264.7 macrophages; experiment: PGE2 production inhibition in LPS-induced RAW 264.7 macrophages; format: cell-based; details: means ± SD of three independent experiments; for inhibition at 1 µM: RAW264.7, 1 μM; for inhibition at 5 µM: RAW264.7, 5 μM; for inhibition at 10 µM: RAW264.7, 10 μM
Description: Compounds 1b, 1g, 2a, and 2c were able to inhibit more than 50% of the prostaglandin production at a dose 5 μM. The five compounds were able to reduce PGE2 production by over 75% at a dose of 10 μM.
(§1) Cell culture and sample treatment were performed as reported in the literature. The 3-(4,5-dimethylthiazol-2-yl)-2,5-diphenyltetrazolium bromide (MTT) assay for cell viability followed the procedure previously described in the literature. Nitrite determination was carried as described in the literature, and the PGE2 assay was carried as previously described.

[2] = system: LPS-induced RAW 264.7 macrophages; experiment: Nitric oxide (NO) production inhibition in LPS-induced RAW 264.7 macrophages (nitrite determination); format: cell-based; details: for inhibition at 1 µM: RAW264.7, 1 µM; for inhibition at 1 µM / inhibition at 5 µM / inhibition at 10 µM: LPS-induced RAW 264.7 macrophages; for inhibition at 5 µM: RAW264.7, 5 µM; for inhibition at 10 µM: RAW264.7, 10 µM; for IC50: means ± SD of three independent experiments, read-out: NO (IC50)
Description: The ability of a certain molecule to inhibit the production of inflammatory mediator(s) is one of successful approach to treatment both chronic and acute inflammation.
as §1

[3] = MTT assay for cell viability / cytotoxicity; format: cell-based; details: mouse, RAW 264.7 macrophages, means ± SD of three independent experiments
Description: In addition to NO inhibition, the cytotoxic activity of compounds 1a–i, 2a–i, 3a–h, and 4a–h in RAW 264.7 macrophages were measured using the 3-(4,5-dimethylthiazol-2-yl)-2,5-diphenyltetrazolium bromide (MTT) assay to check whether the effects on the production of NO was caused by nonspecific cytotoxicity.
as §1

[4] = target: T1, iNOS (Mus musculus, UniProt P29477); experiment: iNOS enzyme activity in LPS-pretreated cells (Griess reaction); format: cell-based; details: 5, 10, or 20 μM for 12 h after LPS (1 µg/mL) 12 h
T1 construct: endogenous in cells; host or cells: RAW 264.7 macrophages, LPS-stimulated
Description: Figure 4 Effect of compounds 1b, 1d, 1g, 2a, and 2c on iNOS activity. Following pretreatment with lipopolysaccharide (LPS, 1 µg/mL) for 12 h and wash with phosphate buffer solution (PBS), cells were treated with 1g (5, 10, or 20 μM) for 12 h N^6-(1-Iminoethyl)-L-lysine. (L-NIL) (40 μM) was used as the positive control in the assay. Levels of NO in culture media were quantified using the Griess reaction assay. Data are presented as the means ± SD of three independent experiments. # p < 0.05 versus the control cells; *** p < 0.001 versus LPS-stimulated cells; * statistical significances were compared using ANOVA and Dunnett’s post hoc test.

[5] = system: inducible nitric oxide synthase (iNOS); experiment: LPS-induced iNOS protein expression (SDS-PAGE / immunoblot of cellular lysates); format: cell-based; details: 20 µM; pretreatment 1 h, then LPS (1 μg/mL) 24 h; β-actin reference
Description: As a result of their activity against both NO and PGE2 production and low cellular toxicity, compounds 1b, 1d, 1g, 2a, and 2c were tested for their inhibitory effect on the expression of both iNOS and COX-2. The cellular lysates were prepared from the with- and without-pretreatment tested compounds (5, 10, 20 μM) for one hour and then with LPS (1 μg/mL) for 24 h, using β-actin as a reference. […] Compound 1g might express its inhibitory effect on NO production mainly through inhibition of iNOS protein expression and partially through inhibition of iNOS enzyme activity.
Figure 3 Inhibitory activity of compounds 1b, 1d, 1g, 2a, and 2c on inducible nitric oxide synthase (iNOS) and Cyclooxygenase 2 (COX-2) Cellular lysates were prepared from the with/without pretreatment tested compound (5, 10, and 20 μM) for one hour and then with LPS (1 μg/mL) for 24 h. Total cellular proteins were resolved by sodium dodecyl sulphate-polyacrylamide gel electrophoresis (SDS-PAGE), transferred to Polyvinylidene fluoride (PVDF) membranes, and detected with specific iNOS and COX-2 antibodies. β-actin was used as an internal control.

[6] = Mus musculus, RAW264.7, LPS-induced RAW 264.7 macrophages
[7] = Mus musculus, RAW264.7, nitric oxide production

IC50 [1, 6] | IC50 [2, 7] | melting point | IC50 ([2]; nitric oxide production) | IC50 ([1]; LPS-induced RAW 264.7 macrophages) | Compound | inhibition at 1 µM ([1]; Mus musculus) | inhibition at 5 µM ([1]; Mus musculus) | inhibition at 10 µM ([1]; Mus musculus) | inhibition at 1 µM ([2]; Mus musculus) | inhibition at 5 µM ([2]; Mus musculus) | inhibition at 10 µM ([2]; Mus musculus) | IC50 [3] | Inhibition of iNOS enzyme activity [4] | Inhibition of iNOS expression [5]
0.00625 µM |  |  |  |  | CS(=O)(=O)Nc1ccc([N+](=O)[O-])cc1OC1CCCCC1 [NS-398, N-(2-cyclohexyloxy-4-nitrophenyl)methanesulfonamide, reference compound] | 90.53 ± 0.53% | 95.78 ± 0.67% | 98.2 ± 1.5% |  |  |  |  |  | 
4.68 ± 0.37 µM | 8.68 ± 0.22 µM | 98 to 100 °C |  |  | COc1cccc(-c2nn(-c3ccccc3)cc2-c2ccnc(NCCCNS(=O)(=O)c3ccc(Cl)cc3)c2)c1 [Compound 2c, 4-Chloro-N-(3-((4-(3-(3-methoxyphenyl)-1-phenyl-1H-pyrazol-4-yl)pyridin-2-yl)amino)propyl)benzenesulfonamide] | 17.5 ± 1.51% | > 50% | 81.4 ± 2.94% | 0.02 ± 0.01% | 24.7 ± 0.81% | 59.1 ± 0.93% | 289.9 ± 1.87 µM |  | 
5.06 ± 0.21 µM | 8.2 µM | 155 to 156 °C | 8.23 ± 0.32 µM |  | COc1cccc(-c2nn(-c3ccccc3)cc2-c2ccnc(NCCNS(=O)(=O)c3ccc(F)cc3)c2)c1 [Compound 1d, 4-Fluoro-N-(2-((4-(3-(3-methoxyphenyl)-1-phenyl-1H-pyrazol-4-yl)pyridin-2-yl)amino)ethyl)benzenesulfonamide] | 10.3 ± 0.81% | 49.6 ± 1.25% | 85.8 ± 2.64% | 19.79 ± 0.14% | 29.4 ± 0.77% | 61.3 ± 1.33% | 169.2 ± 1.64 µM | slightly inhibited iNOS enzyme activity in a dose-dependent manner | partial inhibitory effect; also recorded: potential iNOS inhibitory effect
4.87 ± 0.44 µM | 8.04 ± 0.09 µM | 119 to 120 °C |  |  | COc1cccc(-c2nn(-c3ccccc3)cc2-c2ccnc(NCCCNS(=O)(=O)c3ccccc3)c2)c1 [Compound 2a, N-(3-((4-(3-(3-Methoxyphenyl)-1-phenyl-1H-pyrazol-4-yl)pyridin-2-yl)amino)propyl)benzenesulfonamide] | 31.1 ± 1.14% | > 50% | 76.9 ± 4.99% | 0.17 ± 0.03% | 30.2 ± 0.27% | 62.8 ± 3.25% | 346 ± 4.21 µM |  | 
 | 9.96 ± 0.18 µM | 124 to 126 °C |  |  | COc1ccc(S(=O)(=O)NCCCNc2cc(-c3cn(-c4ccccc4)nc3-c3cccc(OC)c3)ccn2)cc1 [Compound 2e, 4-Methoxy-N-(3-((4-(3-(3-methoxyphenyl)-1-phenyl-1H-pyrazol-4-yl)pyridin-2-yl)amino)propyl)benzenesulfonamide] |  |  |  | 2.02 ± 0.01% | 23.9 ± 1.12% | 50.2 ± 1.88% | > 400 µM |  | 
 | 15.2 ± 0.17 µM | 100 to 102 °C |  |  | O=S(=O)(NCCNc1cc(-c2cn(-c3ccccc3)nc2-c2cccc(O)c2)ccn1)c1ccc(Cl)cc1 [Compound 3c, 4-Chloro-N-(2-((4-(3-(3-hydroxyphenyl)-1-phenyl-1H-pyrazol-4-yl)pyridin-2-yl)amino)ethyl)benzenesulfonamide] |  |  |  | 6.34 ± 0.06% | 11.7 ± 0.71% | 33.8 ± 0.89% | 22.7 ± 0.3 µM |  | 
4.55 ± 0.39 µM | 8.55 ± 0.14 µM |  |  |  | COc1cccc(-c2nn(-c3ccccc3)cc2-c2ccnc(NCCNS(=O)(=O)c3ccc(C(F)(F)F)cc3)c2)c1 [Compound 1g, N-(2-((4-(3-(3-Methoxyphenyl)-1-phenyl-1H-pyrazol-4-yl)pyridin-2-yl)amino)ethyl)-4-(trifluoromethyl)benzenesulfonamide] | 19.9 ± 0.89% | > 50% | 79.3 ± 2.19% | 10.98 ± 0.07% | 23.6 ± 0.54% | 60.8 ± 1.75% | 261.6 ± 1.57 µM | slightly inhibited iNOS enzyme activity in a dose-dependent manner | complete inhibition; also recorded: potential iNOS inhibitory effect
 | 9.17 ± 0.52 µM | 104 to 106 °C |  |  | COc1cccc(-c2nn(-c3ccccc3)cc2-c2ccnc(NCCNS(=O)(=O)c3ccccc3)c2)c1 [Compound 1a, N-(2-((4-(3-(3-Methoxyphenyl)-1-phenyl-1H-pyrazol-4-yl)pyridin-2-yl)amino)ethyl)benzenesulfonamide] |  |  |  | 17.35 ± 0.09% | 35.4 ± 1.14% | 52.9 ± 3.12% | 245.8 ± 1.91 µM |  | 
 | 8.86 ± 0.36 µM | 154 to 156 °C |  |  | O=S(=O)(NCCCNc1cc(-c2cn(-c3ccccc3)nc2-c2cccc(O)c2)ccn1)c1ccccc1 [Compound 4a, N-(3-((4-(3-(3-Hydroxyphenyl)-1-phenyl-1H-pyrazol-4-yl)pyridin-2-yl)amino)propyl)benzenesulfonamide] |  |  |  | 11.11 ± 0.1% | 24.1 ± 0.56% | 59.2 ± 1.31% | 16.6 ± 0.91 µM |  | 
 | 10.3 ± 0.23 µM | 100 to 102 °C |  |  | O=S(=O)(NCCNc1cc(-c2cn(-c3ccccc3)nc2-c2cccc(O)c2)ccn1)c1ccccc1 [Compound 3a, N-(2-((4-(3-(3-Hydroxyphenyl)-1-phenyl-1H-pyrazol-4-yl)pyridin-2-yl)amino)ethyl)benzenesulfonamide] |  |  |  | 4.78 ± 0.03% | 21.5 ± 0.37% | 49 ± 1.1% | 29.8 ± 1.91 µM |  | 
 | 21.42 ± 0.17 µM | 146 to 148 °C |  |  | O=S(=O)(NCCNc1cc(-c2cn(-c3ccccc3)nc2-c2cccc(O)c2)ccn1)c1cccc(F)c1 [Compound 3g, 3-Fluoro-N-(2-((4-(3-(3-hydroxyphenyl)-1-phenyl-1H-pyrazol-4-yl)pyridin-2-yl)amino)ethyl)benzenesulfonamide] |  |  |  | 16.2 ± 0.17% | 19.1 ± 0.89% | 37.7 ± 0.85% | 28.7 ± 0.74 µM |  | 
4.72 µM | 7.9 ± 0.41 µM | 136 to 138 °C |  | 4.75 ± 0.25 µM | COc1cccc(-c2nn(-c3ccccc3)cc2-c2ccnc(NCCNS(=O)(=O)c3ccc(Br)cc3)c2)c1 [Compound 1b, 4-Bromo-N-(2-((4-(3-(3-methoxyphenyl)-1-phenyl-1H-pyrazol-4-yl)pyridin-2-yl)amino)ethyl)benzenesulfonamide] | 16.2 ± 0.79% | > 50% | 76.9 ± 1.34% | 12.05 ± 0.11% | 24.2 ± 0.98% | 68.7 ± 2.47% | 254.2 ± 2.54 µM | slightly inhibited iNOS enzyme activity in a dose-dependent manner | partial inhibitory effect; also recorded: potential iNOS inhibitory effect
 | 9.16 ± 0.27 µM | 94 to 96 °C |  |  | COc1cccc(-c2nn(-c3ccccc3)cc2-c2ccnc(NCCCNS(=O)(=O)c3ccc(C)cc3)c2)c1 [Compound 2f, N-(3-((4-(3-(3-Methoxyphenyl)-1-phenyl-1H-pyrazol-4-yl)pyridin-2-yl)amino)propyl)-4-methylbenzenesulfonamide] |  |  |  | 4.36 ± 0.04% | 19.8 ± 0.96% | 46.3 ± 3.21% | 323 ± 3.35 µM |  | 
